# Measured values: patent US20060008512A1, “Composition and methods for improved animal performance” (priority 2004, published 2006)
# Read-outs that look alike come from different tables or passages of the source.
# How the values were obtained:
# [1] = tested on: Hy-Line W-36 White Leghorn hens; conditions: for Egg Shell, % (washed, dried): 6 & 10 d rooms combined; for Whole egg weight (mean±SEM): 4 day period after start of test diets
# Method: Experiment 2. […] The photoperiod was 17 hours of light per day (0330 hours to 2030 hours).
# The objective was to use T4 to humanely induce molting in hens that are continuously provided with ad libitum access to palatable feed meeting or exceeding all National Research Council (1994) standards. Developing a fully efficacious yet affordable molting protocol was predicated on determining the minimum effective level for T4 supplementation. Factors that potentially may affect the required level of T4 supplementation include: (1) uncertainty regarding the efficiency of T4 absorption by the gastrointestinal tract, (2) the possibility that continuous dietary ingestion of T4 could trigger substantially different biological responses when compared single daily injections, and (3) the likelihood that daily T4 intake would diminish in parallel with molt-related reductions in feed intake associated with cessation in egg production. A spontaneous and voluntary loss of appetite (anorexia) commonly accompanies seasonal molting and broodiness in a variety of avian species (Berry, 2003; Webster, 2003). Accordingly, the responses of hens to diets containing 10, 20, and 40 mg T4/kg, to bracket the anticipated range of T4 needed to cause an effective molt, were determined.
# [2] = tested on: fine-wool Merino wethers; conditions: 60 mg thyroxine implants in summer and autumn; cited from earlier work
# [3] = 20 mg/kg of feed 10 d from day 5, Day 7
# [4] = 20 mg/kg of feed 10 d from day 5, Day 10
# [5] = 20 mg/kg of feed 10 d from day 5, Day 14
# [6] = 20 mg/kg of feed 10 d from day 5, Day 30
# [7] = 40 mg/kg of feed 6 d from day 5, Day 7
# [8] = 40 mg/kg of feed 6 d from day 5, Day 10
# [9] = 40 mg/kg of feed 6 d from day 5, Day 14
# [10] = 40 mg/kg of feed 6 d from day 5, Day 30
# [11] = 40 mg/kg of feed 10 d from day 5, Day 7
# [12] = 40 mg/kg of feed 10 d from day 5, Day 10
# [13] = 40 mg/kg of feed 10 d from day 5, Day 14
# [14] = 40 mg/kg of feed 10 d from day 5, Day 30
compound,measurement,setting,value
"N[C@@H](Cc1cc(I)c(Oc2cc(I)c(O)c(I)c2)c(I)c1)C(=O)O [L-thyroxine, 3,5,3′,5′-tetraiodo-L-thyronine]",Hen-day egg production,"[1]; 20 mg/kg of feed 6 d from day 5, day 14",14%
same,Hen-day egg production,"[1]; 20 mg/kg of feed 6 d from day 5, day 16",33%
same,Hen-day egg production,"[1]; 20 mg/kg of feed 6 d from day 5, day 18",39%
same,Hen-day egg production,"[1]; 20 mg/kg of feed 6 d from day 5, day 20",47%
same,Hen-day egg production,"[1]; 20 mg/kg of feed 6 d from day 5, day 22",64%
same,Hen-day egg production,"[1]; 20 mg/kg of feed 6 d from day 5, day 24",64%
same,Hen-day egg production,"[1]; 20 mg/kg of feed 6 d from day 5, day 26",78%
same,Hen-day egg production,"[1]; 20 mg/kg of feed 6 d from day 5, day 28",89%
same,Hen-day egg production,"[1]; 20 mg/kg of feed 6 d from day 5, day 30",61%
same,Body weight (BW),"[1]; 20 mg/kg of feed 10 d from day 5, Day 1",1680 g
same,Body weight (BW),[1]; [3],1533 g
same,Body weight change from day 1 (% BWC),[1]; [3],−8.8%
same,Body weight (BW),[1]; [4],1431 g
same,Body weight change from day 1 (% BWC),[1]; [4],−14.8%
same,Body weight (BW),[1]; [5],1373 g
same,Body weight change from day 1 (% BWC),[1]; [5],−18.3%
same,Body weight (BW),[1]; [6],1448 g
same,Body weight change from day 1 (% BWC),[1]; [6],−13.8%
same,"Egg Shell, % (washed, dried)","[1]; 20 mg/kg of feed, Days 2 to 4",8.38 (n = 10) %
same,"Egg Shell, % (washed, dried)","[1]; 20 mg/kg of feed, Days 5 to 6",8.08 (n = 13) %
same,"Egg Shell, % (washed, dried)","[1]; 20 mg/kg of feed, Days 7 to 8",5.56 (n = 2) %
same,Egg production,[1]; 40 mg T4/kg diet for 10 days,cease completely
same,Body weight (BW),"[1]; 40 mg/kg of feed 6 d from day 5, Day 1",1629 g
same,Body weight (BW),[1]; [7],1443 g
same,Body weight change from day 1 (% BWC),[1]; [7],−11.4%
same,Body weight (BW),[1]; [8],1350 g
same,Body weight change from day 1 (% BWC),[1]; [8],−17.1%
same,Body weight (BW),[1]; [9],1396 g
same,Body weight change from day 1 (% BWC),[1]; [9],−14.3%
same,Body weight (BW),[1]; [10],1481 g
same,Body weight change from day 1 (% BWC),[1]; [10],−9.1%
same,Hen-day egg production,"[1]; 40 mg/kg of feed 6 d from day 5, day 4",67%
same,Hen-day egg production,"[1]; 40 mg/kg of feed 6 d from day 5, day 6",42%
same,Hen-day egg production,"[1]; 40 mg/kg of feed 6 d from day 5, day 8",8%
same,Hen-day egg production,"[1]; 40 mg/kg of feed 6 d from day 5, day 10",0%
same,Hen-day egg production,"[1]; 40 mg/kg of feed 6 d from day 5, day 12",0%
same,Hen-day egg production,"[1]; 40 mg/kg of feed 6 d from day 5, day 14",0%
same,Hen-day egg production,"[1]; 40 mg/kg of feed 6 d from day 5, day 16",0%
same,Hen-day egg production,"[1]; 40 mg/kg of feed 6 d from day 5, day 18",8%
same,Hen-day egg production,"[1]; 40 mg/kg of feed 6 d from day 5, day 20",25%
same,Hen-day egg production,"[1]; 40 mg/kg of feed 6 d from day 5, day 22",25%
same,Hen-day egg production,"[1]; 40 mg/kg of feed 6 d from day 5, day 24",50%
same,Hen-day egg production,"[1]; 40 mg/kg of feed 6 d from day 5, day 26",17%
same,Hen-day egg production,"[1]; 40 mg/kg of feed 6 d from day 5, day 28",33%
same,Hen-day egg production,"[1]; 40 mg/kg of feed 6 d from day 5, day 30",33%
same,Body weight (BW),"[1]; 40 mg/kg of feed 10 d from day 5, Day 1",1572 g
same,Body weight (BW),[1]; [11],1392 g
same,Body weight change from day 1 (% BWC),[1]; [11],−11.5%
same,Body weight (BW),[1]; [12],1309 g
same,Body weight change from day 1 (% BWC),[1]; [12],−16.7%
same,Body weight (BW),[1]; [13],1245 g
same,Body weight change from day 1 (% BWC),[1]; [13],−20.8%
same,Body weight (BW),[1]; [14],1322 g
same,Body weight change from day 1 (% BWC),[1]; [14],−15.9%
same,"Egg Shell, % (washed, dried)","[1]; 40 mg/kg of feed, Days 2 to 4",8.34 (n = 6) %
same,"Egg Shell, % (washed, dried)","[1]; 40 mg/kg of feed, Days 5 to 6",7.82 (n = 6) %
same,"Egg Shell, % (washed, dried)","[1]; 40 mg/kg of feed, Days 7 to 8",6.63 (n = 3) %
same,Mortality,"[1]; 10, 20, 40 mg T4/kg diets, 6 or 10 days",No mortal-ity occurred
same,Whole egg weight (mean±SEM),[1]; 10 ppm T4,62 ± 2 g
same,Time to reduced egg production,[1]; 20 and 40 mg T4/kg feed,≤ 4 days
same,Whole egg weight (mean±SEM),[1]; 20 ppm T4,65 ± 2 g
same,Whole egg weight (mean±SEM),[1]; 40 ppm T4,65 ± 3 g
same,Size of regressed reproductive tracts at necropsy,[1]; hens that had entirely ceased egg production after the test diets,≤ 50 % normal size
same,Increase in annual fleece weight,[2],34%
